Results reported in ChEMBL document CHEMBL3046945, “Enantioselective Antifungal Activity of Pefurazoate against Pathogens of Rice Seed Diseases” (J Pestic Sci, 2001).

How the values were obtained:
Fusarium fujikuroi [1] = test: Antifungal activity against benzimidazole-sensitive Fusarium fujikuroi assessed as diameter of mycelial colony after 3 to 4 days by agar dilution method; assay type: functional, organism-based
Bipolaris oryzae = test: Antifungal activity against Bipolaris oryzae assessed as diameter of mycelial colony after 3 to 4 days by agar dilution method; assay type: functional, organism-based
Pyricularia oryzae = test: Antifungal activity against Magnaporthe oryzae assessed as diameter of mycelial colony after 3 to 4 days by agar dilution method; assay type: functional, organism-based
Fusarium fujikuroi [2] = test: Inhibition of ergosterol biosynthesis in benzimidazole-sensitive Fusarium fujikuroi assessed as incorporation of [2-14C] acetate into total lipids at 7.35 ppm by autoradiography; assay type: functional
Fusarium fujikuroi [3] = test: Inhibition of ergosterol biosynthesis in benzimidazole-sensitive Fusarium fujikuroi assessed as incorporation of [2-14C] acetate into lipid fraction at 7.35 ppm by autoradiography; assay type: functional
Fusarium fujikuroi [4] = test: Inhibition of ergosterol biosynthesis in benzimidazole-sensitive Fusarium fujikuroi assessed as incorporation of [2-14C] acetate into ergosterol at 7.35 ppm by autoradiography; assay type: functional
Fusarium fujikuroi [5] = test: Inhibition of ergosterol biosynthesis in benzimidazole-sensitive Fusarium fujikuroi assessed as incorporation of [2-14C] acetate into 24-methylenedihydrolanosterol at 7.35 ppm by autoradiography; assay type: functional
Fusarium fujikuroi [6] = test: Inhibition of ergosterol biosynthesis in benzimidazole-sensitive Fusarium fujikuroi assessed as incorporation of [2-14C] acetate into lipid fraction at 0.24 ppm by autoradiography; assay type: functional
Fusarium fujikuroi [7] = test: Inhibition of ergosterol biosynthesis in benzimidazole-sensitive Fusarium fujikuroi assessed as incorporation of [2-14C] acetate into 24-methylenedihydrolanosterol at 0.24 ppm by autoradiography; assay type: functional
Fusarium fujikuroi [8] = test: Inhibition of ergosterol biosynthesis in benzimidazole-sensitive Fusarium fujikuroi assessed as incorporation of [2-14C] acetate into ergosterol at 0.24 ppm by autoradiography; assay type: functional
Fusarium fujikuroi [9] = test: Inhibition of ergosterol biosynthesis in benzimidazole-sensitive Fusarium fujikuroi assessed as incorporation of [2-14C] acetate into total lipids at 0.24 ppm by autoradiography; assay type: functional

SMILES | EC50 (Fusarium fujikuroi [1]) [ppm] | EC50 (Bipolaris oryzae) [ppm] | EC50 (Pyricularia oryzae) [ppm] | inhibition at 7.35 ppm (Fusarium fujikuroi [2]) [%] | inhibition at 7.35 ppm (Fusarium fujikuroi [3]) [%] | inhibition at 7.35 ppm (Fusarium fujikuroi [4]) [%] | inhibition at 7.35 ppm (Fusarium fujikuroi [5]) [%] | inhibition at 0.24 ppm (Fusarium fujikuroi [6]) [%] | inhibition at 0.24 ppm (Fusarium fujikuroi [7]) [%] | inhibition at 0.24 ppm (Fusarium fujikuroi [8]) [%] | inhibition at 0.24 ppm (Fusarium fujikuroi [9]) [%]
C=CCCCOC(=O)C(CC)N(Cc1ccco1)C(=O)n1ccnc1 (racemic) [Pefurazoate] | 0.49 | 0.84 | 0.89 | – | – | – | – | – | – | – | –
C=CCCCOC(=O)[C@@H](CC)N(Cc1ccco1)C(=O)n1ccnc1 [(R)-(+)-pefurazoate] | 7.35 | 3.89 | 3.21 | 1.6 | 84.5 | 1.3 | 14.2 | – | – | – | –
C=CCCCOC(=O)[C@H](CC)N(Cc1ccco1)C(=O)n1ccnc1 [(S)-(-)-pefurazoate] | 0.24 | 0.41 | 0.61 | – | – | – | – | 84.8 | 13.9 | 1.3 | 1.3
